Reference: ChEMBL document CHEMBL1126918, “Analysis of two cycloplatinated compounds derived from N-(4-methoxyphenyl)-alpha-benzoylbenzylidenamine. Comparison of the activity of these compounds with other isostructural cyclopalladated compounds” (J Med Chem, 1993)

Key:
HL-60 = assay: Tested for inhibition against leukemic HL-60 (human cancer) cell lines; format: functional, cell-based
MDA-MB-468 = assay: Tested for inhibition against mammary cancer MDA-MB 468 (breast carcinoma) cell lines; format: functional, cell-based; details: Homo sapiens

CISPLATIN
ID50 (HL-60): 2300 nM | ID50 (MDA-MB-468): 3300 nM
